Measurements reported in patent US11951202B2, “Compounds and compositions for use” (DR WELLER LIMITED, priority 2016, dated 2024).

Tested on: full thickness human skin homogenate
Experiment: In vitro NO generation by NO specific Clarke-type electrode, UVA-irradiated skin homogenate
Format: biochemical
Details: UVA radiation, nitrite source
From the text: Electrochemical sensors are widely used for the measurement of NO generation and Clark-type electrodes are most widely used as they are commercially available and easy to handle. The principle of these sensors is that NO diffuses through a gas-permeable membrane and a thin film of electrolyte, followed by oxidation on the working electrode. This oxidation creates a current that is proportional to the concentration of NO outside the membrane. The advantage of electrochemical NO sensors is the ability to directly detect NO concentration in solution or in biological samples with a low nanomolar detection limit. This makes NO electrodes an excellent tool for studying NO generation especially in biological samples.
We used the Clarke electrode technique to investigate the mechanism of UVA light dependent NO generation in skin and cosmetically acceptable components which could facilitate augment the endogenous process.
A 10% (g/mL) full thickness human skin homogenate in phosphate buffer was prepared using a glass/glass homogenizer. The homogenate was preheated at 56° C. for 1 hour to inactivate enzymatic generation of NO.
200 ul of homogenate was placed in a quartz cuvette in a thermostatically controlled environment and irradiated with broadband (320-400 nm) UVA radiation. Baseline signals were recorded. […]

Row | SMILES | sustained UV induced NO generation from nitrite
1 | N[C@@H](CSSC[C@H](N)C(=O)O)C(=O)O [Cystine] | able to participate in sustained NO generation
2 | O=C(O)CCCCC1CCSS1 (centres unmarked) [Lipoic acid (Oxidised), Lipoic acid] | able to participate in sustained NO generation
